Earlier results as cited in US20250241301A1, “COMPOSITIONS AND METHODS FOR INHIBITING PATHOGEN GROWTH ON PLANTS AND IMPROVING CROP SAFETY” (priority 2024, published 2025).

Tested on: potatoes
Settings: T2H applied alone; cited from earlier work

**Q.** Which “skin pitting/lesion damage to potatoes” value does the source give for `CCC/C=C/C=O` [T2H, trans-2-hexenal] here?
**A.** Its value is “skin pitting/lesion damage”.
